Results reported in patent US20070042995A1, “Use of acetyl-d-aminoglycosamine in treatment of local lesions and systematic symptoms related to infections of virus or bacteria” (Third Military Medical University , Chinese People …, priority 2003, published 2007).

Experiments:
[1] = test system: Pseudomonas aeruginosa, serotype 8; experiment: Animal test of controlling local lesions and systemic symptoms caused by infection of microorganism; format: in vivo, rabbits; settings: 10% aqueous solution i.v., 2 ml, 3 times per day, 3 days; for rabbits survived: of 10 rabbits
Description: 10 rabbits were used in tests. The rabbits were administered with a culture of Gram-negative bacteria (Pseudomonas aeruginosa, serotype 8, wherein the bacterial number in the culture is about 3×10^11) in a dose of 10 ml per day for consecutive 3 days. […] The rabbits were intravenously administered with N-acetyl-D-glucosamine (10% aqueous solution) a dose of 2 ml every time, 3 times per day, for consecutive 3 days. […] In the test group, all 10 rabbits survived, while in the control group, 8/10 rabbits of the control group died within one week, and only 2 rabbits survived.
When N-acetyl-D-glucosamine was replaced with N-acetyl-D-glucosamine hydrochloride in the tests (other conditions were not changed), 7/10 rabbits of test group survived.

Proteus Mirabilis = experiment: Promoting wave test (bio-wave model); format: cell-based; settings: final concentration 0.5%, 37° C., 9 hours
Source text: 1. Experimental Materials and Method: 1.1 Sample: Pure Compound of Formula (I) 1.2 Experimental Materials: • Strain: Proteus Mirabilis that meets the following biochemical reaction characteristics; dynamics (+), urease (+), lactose (−), glucose (+), H2S (−), phenylalanine deaminase (+). • Culture medium; modified LB culture medium (components: 1% tryptones, 0.5% yeast extract, 1% sodium chloride, 0.1% glucose, 0.002% TTC, and pH=7.2 to 7.4). 1.3 Experimental Method: • Control sample: the Proteus Mirabilis were inoculated at the center of LB plate, incubating at 37° C. for 9 hours; • Test sample: the compound of formula (I) with a final concentration of 0.5% was added to the LB plate, then the Proteus Mirabilis were inoculated by the same method, and cultured at 37° C. for 9 hours. 2. […] This wave-promoting function may explain the effects of using N-acetyl-D-glucosamine or pharmaceutically acceptable salts thereof for treating and controlling local lesions and systematic symptoms caused by infections of virus or bacteria.

[2] = in vivo
Source text: The toxicological test of the compound of formula (I) includes: • 1. Acute toxicity test: including tests of oral administration, intravenous injection administration, and maximum limit amount for administration; • 2. Ames test; • 3. Micronucleus test of mouse bone marrow cell; • 4. Abnormality test of mouse sperm; • 5. Aberration test of mouse testis chromosome; • 6. Chronic lethal test; • 7. Sub-chronic toxicity (feed for 90 days) test; • 8. Traditional deformity-inducing test.

B16 tumor cells [3] = experiment: Cytological test of regulating micro-heterology variation; format: cell-based; settings: final concentration 1 g/100 ml, incomplete 1640 media, cultured more than 48 hours
Description: Conventional incomplete 1640 culture media were used for cell culture, and B16 tumor cells (commercially obtained from the tumor cell library of Shanghai Institute of Cytobiology) were inoculated on said media. After being continuously cultured for more than 48 hours, the micro-heterology variation of cells and the control effects of N-acetyl-D-glucosamine thereon were observed under a condition where metabolic wastes affected the growth environment. […] The control cells cultured without N-acetyl-D-glucosamine could not proliferate on the same culture media under same conditions.

B16 tumor cells [4] = experiment: Animal test of regulating micro-heterology variation (B16 tumor cells inoculated in rats); format: in vivo; settings: of 50 rats; 5% aqueous solution i.p., 1 ml, 3 times per day, 7 days
Source text: In control group without the administration of the compound of formula (1), many proliferative corpuscles appeared in at least 40 among 50 rats within 1-3 days after the tumor cells were inoculated; many immature cells appeared within 3-5 days; and visible solid tumors finally appeared within about 10 days.

Row | Structure (SMILES) | rabbits survived [1] | bio-wave pattern of colony growth on LB plate (Proteus Mirabilis) | dosage at which acute toxicosis reaction had not appeared [2] | cell proliferation under metabolic waste conditions (B16 tumor cells [3]) | number of rats in which solid tumor did not appear (B16 tumor cells [4]) | inflammation of nasal mucosa and respiratory tract [1] | systemic toxic symptoms ([1]; after one week)
1 | CC(=O)N[C@H]1C(O)O[C@H](CO)[C@@H](O)[C@@H]1O.Cl (stereo partly drawn) [N-acetyl-D-glucosamine hydrochloride] | 7/10 | – | – | – | – | – | –
2 | CC(=O)N[C@@H]1[C@@H](O)[C@H](O)[C@@H](CO)O[C@H]1O [N-acetyl-D-glucosamine] | 10 rabbits | not only concentric rings with an interval of 3 hours, but also many fine waves on each ring | more than 2 g/kg | the cell number stably increased with the culture time | 45 rats | inflammations were alleviated | symptoms were alleviated
